# ChEMBL document CHEMBL5365447, “Pronucleotides of 2',3'-Dideoxy-2',3'-Didehydrothymidine as Potent Anti-HIV Compounds” (J Med Chem, 2023)
# Calls of active or inactive are those of the source. No cut-off for these calls is given here.
# Target: T1, DNA polymerase subunit gamma-1 (Homo sapiens) (UniProt P54098)
# T1 sequence (whole entry): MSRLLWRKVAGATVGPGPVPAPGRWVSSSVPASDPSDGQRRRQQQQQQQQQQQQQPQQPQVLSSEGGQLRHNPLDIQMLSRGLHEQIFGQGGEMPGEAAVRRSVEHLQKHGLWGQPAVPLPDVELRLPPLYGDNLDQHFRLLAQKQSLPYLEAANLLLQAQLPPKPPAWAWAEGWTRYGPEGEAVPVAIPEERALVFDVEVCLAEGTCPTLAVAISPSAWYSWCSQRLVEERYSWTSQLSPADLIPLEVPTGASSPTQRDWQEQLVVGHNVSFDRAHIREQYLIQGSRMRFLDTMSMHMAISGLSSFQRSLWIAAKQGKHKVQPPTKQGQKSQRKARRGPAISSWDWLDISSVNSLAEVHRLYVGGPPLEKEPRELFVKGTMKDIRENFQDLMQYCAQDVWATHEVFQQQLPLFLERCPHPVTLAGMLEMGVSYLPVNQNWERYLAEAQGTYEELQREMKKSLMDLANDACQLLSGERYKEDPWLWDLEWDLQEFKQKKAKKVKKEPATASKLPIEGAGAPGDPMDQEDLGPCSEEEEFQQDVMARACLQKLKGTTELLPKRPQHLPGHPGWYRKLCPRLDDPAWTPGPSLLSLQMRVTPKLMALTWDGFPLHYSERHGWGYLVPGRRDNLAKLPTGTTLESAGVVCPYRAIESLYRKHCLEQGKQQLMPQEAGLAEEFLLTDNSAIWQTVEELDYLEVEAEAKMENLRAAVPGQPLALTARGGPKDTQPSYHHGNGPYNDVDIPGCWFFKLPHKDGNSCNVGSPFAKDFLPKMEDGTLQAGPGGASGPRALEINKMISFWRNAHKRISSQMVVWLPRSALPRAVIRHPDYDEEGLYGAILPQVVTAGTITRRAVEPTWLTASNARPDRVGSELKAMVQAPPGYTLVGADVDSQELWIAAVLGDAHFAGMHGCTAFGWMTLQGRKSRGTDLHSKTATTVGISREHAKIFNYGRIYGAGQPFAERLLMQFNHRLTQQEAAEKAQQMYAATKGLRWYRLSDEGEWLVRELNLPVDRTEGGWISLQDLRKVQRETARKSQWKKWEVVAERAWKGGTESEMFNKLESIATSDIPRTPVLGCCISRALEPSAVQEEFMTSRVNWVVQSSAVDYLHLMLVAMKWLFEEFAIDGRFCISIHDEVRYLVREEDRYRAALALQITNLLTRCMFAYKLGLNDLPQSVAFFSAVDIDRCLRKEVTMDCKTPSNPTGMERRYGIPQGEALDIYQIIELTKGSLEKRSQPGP
# Assay: Substrate activity at human DNA polymerase gamma measured after 4 hrs by electrophoresis based primer extension assay
smiles,measurement,value
CCCCCCCCCCCCCCCCCCP(=O)(OC)OP(=O)(O)OP(=O)(O)OC[C@@H]1C=C[C@H](n2cc(C)c(=O)[nH]c2=O)O1.N.N (stereo partly specified),Activity,inactive
